We go through 68 compounds from PubChem BioAssay AID493144 (Sanford-Burnham Center for Chemical Genomics, 2011).

Calls of active or inactive are those of the source. No rule for the calls is given here.

The assay has as its target Intestinal-type alkaline phosphatase (Homo sapiens) (UniProt P09923). In words: human IAP inhibitors, SAR follow-up, mouse IAP inhibitor project, biochemical, human enzyme for mouse series (AID 493144). To be noted: purified human intestinal alkaline phosphatase, enzymatic activity.

Intestinal-type alkaline phosphatase (Homo sapiens), sequence (P09923 whole entry, looked up): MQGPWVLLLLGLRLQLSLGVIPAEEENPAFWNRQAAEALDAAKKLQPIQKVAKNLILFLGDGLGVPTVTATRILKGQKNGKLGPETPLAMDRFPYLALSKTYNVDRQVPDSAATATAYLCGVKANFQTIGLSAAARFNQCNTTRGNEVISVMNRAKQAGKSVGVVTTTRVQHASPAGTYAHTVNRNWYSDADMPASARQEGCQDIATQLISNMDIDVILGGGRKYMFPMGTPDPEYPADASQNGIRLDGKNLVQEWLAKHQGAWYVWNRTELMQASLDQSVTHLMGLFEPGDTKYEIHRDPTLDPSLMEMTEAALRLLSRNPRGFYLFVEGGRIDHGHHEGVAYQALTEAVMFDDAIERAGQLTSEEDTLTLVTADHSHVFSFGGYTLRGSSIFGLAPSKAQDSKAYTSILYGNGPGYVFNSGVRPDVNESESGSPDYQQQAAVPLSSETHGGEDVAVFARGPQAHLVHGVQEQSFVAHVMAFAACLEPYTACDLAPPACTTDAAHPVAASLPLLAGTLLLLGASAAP

As usually defined, the IC50 is the concentration at which inhibition is half-maximal. For the compound `S=C(NCCC(c1ccccc1)c1ccccc1)Nc1ccc(Cl)c(Cl)c1`, the IC50 was > 100 µM (inactive).

For the compound `CN(C)S(=O)(=O)c1cccc(NC(=S)NCCC(c2ccccc2)c2ccccc2)c1`, the IC50 was > 100 µM (inactive).

In the case of `O=[N+]([O-])c1ccc(NC(=S)NCCC(c2ccccc2)c2ccccc2)cc1`, the IC50 was > 100 µM (inactive).

Turning to `COc1cccc(-c2cccc(NC(=O)C3CCN(Cc4ccc(CO)o4)CC3)c2)c1`, the IC50 is > 100 µM (inactive).

For the compound `Fc1ccc(NC(=S)NCCC(c2ccccc2)c2ccccc2)cc1Cl`, the IC50 is > 100 µM (inactive).

As to `Fc1ccccc1NC(=S)NCCC(c1ccccc1)c1ccccc1`, the IC50 is > 100 µM (inactive).

Take `CCOC(=O)c1ccc(NC(=S)NCCC(c2ccccc2)c2ccccc2)cc1`: the IC50 is > 100 µM (inactive).

Take `S=C(NCCC(c1ccccc1)c1ccccc1)Nc1ccc(Cl)cc1Cl`: the IC50 was > 100 µM (inactive).

For `C=CCn1cc(CN2CCC(C(=O)Nc3cccc(-c4cccc(F)c4)c3)CC2)c(C)n1`, the IC50 was > 100 µM (inactive).

`Cc1cc(Cl)ccc1NC(=S)NCCC(c1ccccc1)c1ccccc1`: the IC50 was > 100 µM (inactive).

As to `FC(F)(F)c1cccc(NC(=S)NCCC(c2ccccc2)c2ccccc2)c1`, the IC50 is > 100 µM (inactive).

In the case of `COc1cccc(NC(=S)NCCC(c2ccccc2)c2ccccc2)c1`, the IC50 is > 100 µM (inactive).

In the case of `Cn1cc(CN2CCC(C(=O)Nc3cccc(-c4cccc(F)c4)c3)CC2)cn1`, the IC50 was > 100 µM (inactive).

Take `Cc1cc(=O)oc2cc(NC(=S)NCCC(c3ccccc3)c3ccccc3)ccc12`: the IC50 was > 100 µM (inactive).

For `CC(C)c1ccccc1NC(=S)NCCC(c1ccccc1)c1ccccc1`, the IC50 was > 100 µM (inactive).

Take `O=C(Nc1cccc(-c2cccc(Cl)c2)c1)C1CCN(C2CCC2)CC1`: the IC50 is > 100 µM (inactive).

Regarding `Oc1ccc(-c2csc(Nc3cccc4ccccc34)n2)cc1O`, the IC50 is 44.1 µM.

Turning to `S=C(NCCC(c1ccccc1)c1ccccc1)Nc1ccccc1`, the IC50 was > 100 µM (inactive).

In the case of `COc1cccc(-c2cccc(NC(=O)C3CCN(Cc4ccc(C)o4)CC3)c2)c1`, the IC50 is > 100 µM (inactive).

Take `Cc1ccc(CN2CCC(C(=O)Nc3cccc(-c4cccc(F)c4)c3)CC2)o1`: the IC50 is > 100 µM (inactive).

Consider `O=C(CN1C(=O)/C(=C/c2ccco2)SC1=S)Nc1ccc(C(=O)O)cc1`, for which the IC50 is > 100 µM (inactive).

For the compound `O=C(CN1C(=O)/C(=C/c2ccco2)SC1=S)Nc1cccc(C(=O)O)c1`, the IC50 was > 100 µM (inactive).

As to `O=S(=O)(Nc1ncccn1)c1ccc(NC(=S)NCCC(c2ccccc2)c2ccccc2)cc1`, the IC50 is > 100 µM (inactive).

Consider `Cc1ccc(C)c(NC(=S)NCCC(c2ccccc2)c2ccccc2)c1`, for which the IC50 is > 100 µM (inactive).

As to `Cc1ccc(NC(=S)NCCC(c2ccccc2)c2ccccc2)cc1C`, the IC50 was > 100 µM (inactive).

As for `Cc1c(Cl)cccc1NC(=S)NCCC(c1ccccc1)c1ccccc1`, the IC50 is > 100 µM (inactive).

`Cc1ccc(NC(=O)CCNS(=O)(=O)c2ccc3[nH]c(=O)oc3c2)cc1C`: the IC50 is > 100 µM (inactive).

On to `COc1ccc(Cl)cc1Nc1nc(-c2ccc(O)c(O)c2)cs1`, for which the IC50 is > 100 µM (inactive).

Turning to `CCn1ncc(CN2CCC(C(=O)Nc3cccc(-c4cccc(F)c4)c3)CC2)c1C`, the IC50 is > 100 µM (inactive).

With `CCn1cc(CN2CCC(C(=O)Nc3cccc(-c4cccc(F)c4)c3)CC2)cn1`, the IC50 is > 100 µM (inactive).

Regarding `Cc1nn(C(C)C)c(C)c1CN1CCC(C(=O)Nc2cccc(-c3cccc(F)c3)c2)CC1`, the IC50 is > 100 µM (inactive).

`Cn1cc(CN2CCC(C(=O)Nc3cccc(-c4cccc(Cl)c4)c3)CC2)cn1`: the IC50 was > 100 µM (inactive).

`C=CCn1cc(CN2CCC(C(=O)Nc3cccc(-c4cccc(Cl)c4)c3)CC2)c(C)n1`: the IC50 is > 100 µM (inactive).

As to `COc1ccc(C(=O)CSc2n[nH]c(-c3ccccc3)n2)cc1OC`, the IC50 is > 100 µM (inactive).

As to `CCCn1ncc(CN2CCC(C(=O)Nc3cccc(-c4cccc(F)c4)c3)CC2)c1C`, the IC50 is > 100 µM (inactive).

With `COCc1ccc(CN2CCC(C(=O)Nc3cccc(-c4cccc(Cl)c4)c3)CC2)o1`, the IC50 was > 100 µM (inactive).

Turning to `COC(=O)c1cc(NC(=S)NCCC(c2ccccc2)c2ccccc2)cc(C(=O)OC)c1`, the IC50 was > 100 µM (inactive).

As for `CCn1cc(CN2CCC(C(=O)Nc3cccc(-c4cccc(OC)c4)c3)CC2)cn1`, the IC50 was > 100 µM (inactive).

For the compound `COc1cc(NC(=S)NCCC(c2ccccc2)c2ccccc2)cc(OC)c1`, the IC50 was > 100 µM (inactive).

Take `NS(=O)(=O)c1ccc(NC(=S)NCCC(c2ccccc2)c2ccccc2)cc1`: the IC50 is > 100 µM (inactive).

Take `COc1ccc(NC(=S)NCCC(c2ccccc2)c2ccccc2)cc1`: the IC50 is > 100 µM (inactive).

For `CCn1cc(CN2CCC(C(=O)Nc3cccc(-c4cccc(OC)c4)c3)CC2)c(C)n1`, the IC50 is > 100 µM (inactive).

In the case of `O=C(CN1C(=O)/C(=C\c2ccco2)SC1=S)Nc1ccccc1C(=O)O`, the IC50 was > 100 µM (inactive).

Consider `COc1cc([N+](=O)[O-])ccc1NC(=S)NCCC(c1ccccc1)c1ccccc1`, for which the IC50 is > 100 µM (inactive).

Consider `Cc1c(CN2CCC(C(=O)Nc3cccc(-c4cccc(Cl)c4)c3)CC2)cnn1C`, for which the IC50 is > 100 µM (inactive).

Regarding `CN1CCC(=NNC(=O)c2cc(O)c(O)c(O)c2)CC1`, the IC50 was > 100 µM (inactive).

Regarding `Cc1c(Cl)cccc1Nc1nc(-c2ccc(O)c(O)c2)cs1`, the IC50 was > 100 µM (inactive).

Take `O=C(Nc1cccc(-c2cccc(F)c2)c1)C1CCN(Cc2ccc(CO)o2)CC1`: the IC50 was > 100 µM (inactive).

`S=C(NCCC(c1ccccc1)c1ccccc1)Nc1ccc(Nc2ccccc2)cc1`: the IC50 is > 100 µM (inactive).

Take `CCn1cc(CN2CCC(C(=O)Nc3cccc(-c4cccc(Cl)c4)c3)CC2)cn1`: the IC50 was > 100 µM (inactive).

Turning to `S=C(NCCC(c1ccccc1)c1ccccc1)Nc1ccc(Cl)cc1`, the IC50 is > 100 µM (inactive).

With `Cc1cccc(NC(=S)NCCC(c2ccccc2)c2ccccc2)c1C`, the IC50 is > 100 µM (inactive).

`CCn1nc(C)c(CN2CCC(C(=O)Nc3cccc(-c4cccc(F)c4)c3)CC2)c1C`: the IC50 is > 100 µM (inactive).

Consider `CCc1ccccc1Nc1nc(-c2ccc(O)c(O)c2)cs1`, for which the IC50 is 21.4 µM.

As to `Cc1ccc(NC(=S)NCCC(c2ccccc2)c2ccccc2)cc1`, the IC50 was > 100 µM (inactive).

Turning to `COc1ccc(Cl)cc1NC(=S)NCCC(c1ccccc1)c1ccccc1`, the IC50 was > 100 µM (inactive).

For `Cc1cc(NC(=O)CCNS(=O)(=O)c2ccc3[nH]c(=O)oc3c2)ccc1Br`, the IC50 is > 100 µM (inactive).

In the case of `CCN1CCN(S(=O)(=O)c2ccc3[nH]c(=O)oc3c2)CC1`, the IC50 was > 100 µM (inactive).

For `Cc1cc(C)cc(NC(=S)NCCC(c2ccccc2)c2ccccc2)c1`, the IC50 is > 100 µM (inactive).

With `CC(C)N1CCC(=NNC(=O)c2cc(O)c(O)c(O)c2)CC1`, the IC50 was > 100 µM (inactive).

Take `CC1(c2ccccc2)CC(C)(C)N(C(=S)Nc2ccccc2)c2ccccc21` (stereo not drawn): the IC50 was > 100 µM (inactive).

Consider `CC(C)n1cc(CN2CCC(C(=O)Nc3cccc(-c4cccc(F)c4)c3)CC2)cn1`, for which the IC50 is > 100 µM (inactive).

Consider `CC(C)n1cc(CN2CCC(C(=O)Nc3cccc(-c4cccc(Cl)c4)c3)CC2)cn1`, for which the IC50 is > 100 µM (inactive).

For the compound `Cc1nn(C)c(Cl)c1CN1CCC(C(=O)Nc2cccc(-c3cccc(F)c3)c2)CC1`, the IC50 was > 100 µM (inactive).

As for `CCn1nc(C)c(CN2CCC(C(=O)Nc3cccc(-c4cccc(Cl)c4)c3)CC2)c1C`, the IC50 is > 100 µM (inactive).

For the compound `CCn1c(SCC(=O)c2ccc(O)c(O)c2)nnc1-c1ccccc1OC`, the IC50 is 14 µM.

Take `O=C(Nc1cccc(-c2cccc(Cl)c2)c1)C1CCN(Cc2ccc(CO)o2)CC1`: the IC50 was > 100 µM (inactive).

As for `S=C(NCCC(c1ccccc1)c1ccccc1)Nc1cccc(Cl)c1`, the IC50 is > 100 µM (inactive).
